From patent US20090047701A1, “METHOD FOR SCREENING ANTIFUNGAL AGENTS” (STICHTING VOOR DE TECHNISCHE, priority 2004, published 2009)

Tests used:
Type in all cases: cell-based, Aspergillus niger
[1] = system: ΔrlmA strain; experiment: microtiter plate based growth assay: sensitivity of the ΔrlmA strain versus wild-type (N402); settings: spores in Complete medium, 37° C., 96-well plates, various concentrations, ΔrlmA vs N402 (FIG. 4)
Method: Sensitivity of the ΔrlmA strain towards different compounds. Growth curves of wild-type (N402) and ΔrlmA strains. Spores were grown in Complete medium for 24 hrs at 37° C. in the presence of various concentrations of antifungals. Data are represented as the mean and standard error of the mean obtained from four replicates. The dotted line with open squares represents the growth curve of the rlmA deletion strain and the solid line with closed circles represent the parental (N402) strain.
Sensitivity towards various compounds was assayed in 96-well microtiter plates (Nunc, art. 164588) using a Perkin Elmer HTS-7000 Bioassay reader. A series of concentrations of stress-inducing compounds (CFW, Caspofungin, Hydrogen-peroxide, SDS) were prepared in 100 μl milliq in a 96-well plate, and 100 μl spore solution (˜2×10^4 spores) in 2× complete medium was added to 100 μl stress-inducing solution. The microtiter plates were incubated at 37° C. and the OD590 was measured every 2 hours.
The sensitivity of the wild-type and the ΔrlmA strain towards various compounds was also measured by determining fungal growth in a microtiter plate based growth assay.

[2] = system: agsA; experiment: Northern analysis of agsA expression after CFW-induced cell wall stress, wild-type strain (N402); settings: wild-type N402 germlings, 200 μg/ml CFW, RNA at 0, 15, 30, 45 and 60 minutes (FIG. 3)
Method: (§1) Cell wall integrity response in the wild-type (N402) and the ΔrlmA strain. Northern analysis of the agsA, and 18S messenger levels. Strains were grown in shake flask until small germ tubes were formed. Subsequently CFW (+) or an equal volume of water (−) was added to the cultures. RNA was extracted at the timepoints indicated above the Northerns, t=time in minutes. The probes used; for agsA a ˜0.6 kb EcoRI agsA fragment was isolated from pGEMT-agsA (Damveld et al, unpublished vector); the 18S ribosomal probe was isolated as a 2 kb BglI fragment from pMN1 (Borsuk et al., 1982 Gene 17, 147-152.)
(§2) Chromosomal DNA of A. niger was isolated as described by Kolar (Kolar et al., 1988, Gene 62, 127-134). Alternatively, chromosomal DNA was isolated using the FastPrep FP120 (Bio101). First, A. niger spores were grown in Fast-prep tubes containing 1 ml CM and 0.3 gram acid washed glass beads. […] Sequencing was carried out with a Perkin Elmer ABI PRISM 310 sequencer using the ABI prism Big Dye Terminator Cycle Sequencing Ready Reaction Kit (Applied Biosystems). […]
(§3) To determine the role of A. niger RlmA in the activation of agsA in response to cell wall stress, the expression of agsA was analysed in both the wild-type strain (N402) and the rlmA deletion strain (ΔrlmA) after CFW treatment. […]

[3] = system: agsA; experiment: Northern analysis of agsA expression after CFW-induced cell wall stress, rlmA deletion strain (ΔrlmA); settings: ΔrlmA germlings, 200 μg/ml CFW, RNA at 0, 15, 30, 45 and 60 minutes (FIG. 3)
Method: as §1, §2, §3

Compound	Sensitivity of the ΔrlmA strain towards the compound in comparison to the wild-type strain (fungal growth, OD590) [1]	expression level of the agsA gene after CFW addition [2]	agsA mRNA in the ΔrlmA strain after treatment with CFW [3]
O=S(=O)(O)c1cc(Nc2nc(Nc3ccccc3)nc(N(CCO)CCO)n2)ccc1/C=C/c1ccc(Nc2nc(Nc3ccccc3)nc(N(CCO)CCO)n2)cc1S(=O)(=O)O [CFW, Calcofluor White]	hypersensitive phenotype	already induced 15 minutes after CFW addition	no agsA mRNA could be detected
CC[C@H](C)C[C@H](C)CCCCCCCCC(=O)N[C@H]1C[C@@H](O)[C@@H](NCCN)NC(=O)[C@@H]2[C@@H](O)CCN2C(=O)[C@H]([C@H](O)CCN)NC(=O)[C@H]([C@H](O)[C@@H](O)c2ccc(O)cc2)NC(=O)[C@@H]2C[C@@H](O)CN2C(=O)[C@H]([C@@H](C)O)NC1=O [Caspofungin]	slightly, but reproducible enhanced		
OO [H2O2, Hydrogen-peroxide]	no hypersensitive phenotype		
CCCCCCCCCCCCOS(=O)(=O)[O-].[Na+] [SDS]	hypersensitive phenotype		
CCCCNC(=O)n1c(NC(=O)OC)nc2ccccc21 [benomyl]	slightly, but reproducible enhanced		
tunicamycin	slightly, but reproducible enhanced		
